Tests used:
HepG2 [1] = assay: Cytotoxicity against human HepG2 cells assessed as inhibition of cell proliferation after 24 hrs by SRB assay; type: functional, cell-based; settings: HepG2, 24 h
MCF7 = assay: Cytotoxicity against human MCF7 cells assessed as inhibition of cell proliferation after 24 hrs by SRB assay; type: functional, cell-based; settings: MCF7, 24 h
HepG2 [2] = assay: Anticancer activity against 4 Gy gamma-irradiated human HepG2 cells assessed as viable cells after 48 hrs at 12.5 uM by SRB assay (reference value: 21.2%); type: functional; settings: HepG2, light or radiation study, read-out: Activity
HepG2 [3] = assay: Anticancer activity against 4 Gy gamma-irradiated human HepG2 cells assessed as viable cells after 48 hrs at 40 uM by SRB assay (reference value: 21.2%); type: functional; settings: HepG2, light or radiation study, read-out: Activity
HepG2 [4] = assay: Anticancer activity against human HepG2 cells assessed as viable cells after 48 hrs at 40 uM by SRB assay relative to control; type: functional; settings: HepG2, 48 h, read-out: Activity
HepG2 [5] = assay: Anticancer activity against 4 Gy gamma-irradiated human HepG2 cells assessed as viable cells after 48 hrs at 25 uM by SRB assay (reference value: 21.2%); type: functional; settings: HepG2, light or radiation study, read-out: Activity
HepG2 [6] = assay: Anticancer activity against human HepG2 cells assessed as viable cells after 48 hrs at 5 uM by SRB assay relative to control; type: functional; settings: HepG2, 48 h, read-out: Activity
HepG2 [7] = assay: Anticancer activity against human HepG2 cells assessed as viable cells after 48 hrs at 25 uM by SRB assay relative to control; type: functional; settings: HepG2, 48 h, read-out: Activity
HepG2 [8] = assay: Anticancer activity against human HepG2 cells assessed as viable cells after 48 hrs at 12.5 uM by SRB assay relative to control; type: functional; settings: HepG2, 48 h, read-out: Activity
HepG2 [9] = assay: Anticancer activity against 4 Gy gamma-irradiated human HepG2 cells assessed as viable cells after 48 hrs at 5 uM by SRB assay (reference value: 21.2%); type: functional; settings: HepG2, light or radiation study, read-out: Activity
HepG2 [10] = assay: Anticancer activity against 4 Gy gamma-irradiated human HepG2 cells assessed as viable cells after 48 hrs at 12.5 uM by SRB assay (reference value: 18.73%); type: functional; settings: HepG2, light or radiation study, read-out: Activity
HepG2 [11] = assay: Anticancer activity against 4 Gy gamma-irradiated human HepG2 cells assessed as viable cells after 48 hrs at 25 uM by SRB assay (reference value: 18.73%); type: functional; settings: HepG2, light or radiation study, read-out: Activity
HepG2 [12] = assay: Anticancer activity against 4 Gy gamma-irradiated human HepG2 cells assessed as viable cells after 48 hrs at 5 uM by SRB assay (reference value: 18.73%); type: functional; settings: HepG2, light or radiation study, read-out: Activity
HepG2 [13] = assay: Anticancer activity against 4 Gy gamma-irradiated human HepG2 cells assessed as viable cells after 48 hrs at 40 uM by SRB assay (reference value: 18.73%); type: functional; settings: HepG2, light or radiation study, read-out: Activity

Compound: Nc1ncnc2c1c(-c1ccccc1)cn2-c1ccc(S(=O)(=O)Nc2nccs2)cc1
- IC50 (HepG2 [1]): 4.24 µM
- IC50 (MCF7): 6.45 µM

Compound: Nc1ncnc2c1c(-c1ccccc1)cn2-c1ccc(S(=O)(=O)Nc2ccccn2)cc1
- IC50 (HepG2 [1]): 4.09 µM
- IC50 (MCF7): 6.34 µM

Compound: N#Cc1c(-c2ccccc2)cn(-c2ccc(S(=O)(=O)Nc3nccs3)cc2)c1NC(N)=O
- IC50 (HepG2 [1]): 4.02 µM
- IC50 (MCF7): 8.05 µM

Compound: N#Cc1c(-c2ccccc2)cn(-c2ccc(S(=O)(=O)Nc3ccccn3)cc2)c1NC(N)=O
- IC50 (HepG2 [1]): 4.12 µM
- IC50 (MCF7): 7.34 µM

Compound: CC(=O)Nc1c(C#N)c(-c2ccccc2)cn1-c1ccc(S(=O)(=O)Nc2nccs2)cc1
- IC50 (HepG2 [1]): 4.02 µM
- IC50 (MCF7): 7.24 µM

Compound: CC(=O)Nc1c(C#N)c(-c2ccccc2)cn1-c1ccc(S(=O)(=O)Nc2ccccn2)cc1
- viability at 12.5 µM (HepG2 [2]): 69.5%
- viability at 40 µM (HepG2 [3]): 82.5%
- viability at 40 µM (HepG2 [4]): 69.9%
- viability at 25 µM (HepG2 [5]): 82.5%
- IC50 (HepG2 [1]): 3.49 µM
- IC50 (MCF7): 11.8 µM
- viability at 5 µM (HepG2 [6]): 30.3%
- viability at 25 µM (HepG2 [7]): 62.7%
- viability at 12.5 µM (HepG2 [8]): 53.5%
- viability at 5 µM (HepG2 [9]): 57.4%

Compound: N#Cc1c(-c2ccccc2)cn(-c2ccc(S(=O)(=O)Nc3nccs3)cc2)c1NC(=O)CCC(=O)O
- viability at 12.5 µM (HepG2 [2]): 72.6%
- viability at 40 µM (HepG2 [3]): 79.4%
- viability at 40 µM (HepG2 [4]): 49.6%
- viability at 25 µM (HepG2 [5]): 71.8%
- IC50 (HepG2 [1]): 3.75 µM
- IC50 (MCF7): 9.12 µM
- viability at 5 µM (HepG2 [6]): 25%
- viability at 25 µM (HepG2 [7]): 36%
- viability at 12.5 µM (HepG2 [8]): 39.6%
- viability at 5 µM (HepG2 [9]): 60.6%

Compound: N#Cc1c(-c2ccccc2)cn(-c2ccc(S(=O)(=O)Nc3ccccn3)cc2)c1NC(=O)CCC(=O)O
- viability at 40 µM (HepG2 [4]): 78%
- viability at 12.5 µM (HepG2 [10]): 84.4%
- IC50 (HepG2 [1]): 3.75 µM
- viability at 25 µM (HepG2 [11]): 89.2%
- IC50 (MCF7): 8.32 µM
- viability at 5 µM (HepG2 [12]): 81.4%
- viability at 40 µM (HepG2 [13]): 87.7%
- viability at 5 µM (HepG2 [6]): 15.1%
- viability at 25 µM (HepG2 [7]): 72%
- viability at 12.5 µM (HepG2 [8]): 60.3%

Compound: N#Cc1c(-c2ccccc2)cn(-c2ccc(S(=O)(=O)Nc3nccs3)cc2)c1N1C(=O)CCC1=O
- IC50 (HepG2 [1]): 4.56 µM
- IC50 (MCF7): 6.71 µM

Compound: N#Cc1c(-c2ccccc2)cn(-c2ccc(S(=O)(=O)Nc3ccccn3)cc2)c1N1C(=O)CCC1=O
- IC50 (HepG2 [1]): 5.36 µM
- IC50 (MCF7): 9.93 µM

Compound: Cc1nc2c(c(-c3ccccc3)cn2-c2ccc(S(=O)(=O)Nc3nccs3)cc2)c(=O)[nH]1
- IC50 (HepG2 [1]): 3.39 µM
- IC50 (MCF7): 5.8 µM

Compound: COc1cccc2c1C(=O)c1c(O)c3c(c(O)c1C2=O)C[C@@](O)(C(=O)CO)C[C@@H]3O[C@H]1C[C@H](N)[C@H](O)[C@H](C)O1 [DOXORUBICIN]
- IC50 (HepG2 [1]): 5.23 µM

From ChEMBL document CHEMBL1268828, “Synthesis of novel pyrrole and pyrrolo[2,3-d]pyrimidine derivatives bearing sulfonamide moiety for evaluation as anticancer and radiosensitizing agents” (Bioorg Med Chem Lett, 2010)
